In patent publication US8710080B2, “Prodrugs of [4 [4-(5-Aminomethyl-2-fluoro-phenyl)-piperidin-1-yl]-(1H-pyrrolo-pyridin-yl)-methanones and synthesis thereof” (Sanofi, priority 2009, dated 2014):
pKi: −log10 of the molar value. Structures can show the parent of a compound that is named as a salt.

Experiments:
beta-Tryptase = target: T1, beta-Tryptase (Homo sapiens, UniProt Q15661); assay: beta-Tryptase inhibition, chromogenic enzyme assay (S2366 substrate); format: biochemical; conditions: activity of parent drug against beta-Tryptase; Ki calculated from IC50
T1 construct: host or cells: yeast cells
T1 sequence (Q15661 31-275): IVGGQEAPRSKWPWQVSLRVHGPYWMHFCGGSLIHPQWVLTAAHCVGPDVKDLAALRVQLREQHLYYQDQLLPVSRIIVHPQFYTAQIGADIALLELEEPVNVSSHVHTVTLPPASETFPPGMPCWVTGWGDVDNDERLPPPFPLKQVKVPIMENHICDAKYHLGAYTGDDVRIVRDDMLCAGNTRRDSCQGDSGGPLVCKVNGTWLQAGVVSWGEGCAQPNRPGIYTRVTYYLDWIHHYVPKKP
Excerpt: Inhibition of this catalytic activity may be measured by the in vitro enzyme assay and the cellular assay.
Tryptase inhibition activity is confirmed using either isolated human lung tryptase or recombinant human beta tryptase expressed in yeast cells. Essentially equivalent results are obtained using isolated native enzyme or the expressed enzyme. The assay procedure employs a 96 well microplate (Costar 3590) using L-pyroglutamyl-L-prolyl-L-arginine-para-nitroanilide (S2366: Quadratech) as substrate (essentially as described by McEuen et. al. Biochem Pharm, 1996, 52, pages 331-340). Assays are performed at room temperature using 0.5 mM substrate (2×Km) and the microplate is read on a microplate reader (Beckman Biomek Plate reader) at 405 nm wavelength.
Materials and Methods for Tryptase Primary Screen (Chromogenic Assay)
S2366 (Stock solutions of 2.5 mM).
Purified recombinant beta Tryptase Stocks of 310 μg/mL. […]
The protocol is essentially the same as above except that the compound is added in duplicates at the following final concentrations: 0.01, 0.03, 0.1, 0.3, 1, 3, 10 μM (All dilutions carried out manually). […] From the IC50 value, the Ki can be calculated using the following formula: Ki=IC50/(1+[Substrate]/Km).

[1] = Rat plasma stability (incubation in rat plasma, LC-MS/MS); format: in vitro ADME; conditions: 100 ng/mL, 37° C.
Experimental: The rat plasma stability of Example 1 was tested by incubation of the compound in rat plasma at 100 ng/mL followed by LC-MS/MS bioanalysis to measure remaining parent compound relative to the time zero condition (no incubation). Concentrations of 1 remaining at 1 and 4 hr after incubation at 37° C. were 19% and 0%, indicating 1 was very unstable under these conditions. Since 1 was designed as a prodrug, plasma instability is a desirable attribute.

SMILES	pKi (beta-Tryptase)	Rat plasma stability (in words) [1]	Concentration remaining relative to time zero ([1]; 1 hr incubation)	Concentration remaining relative to time zero ([1]; 4 hr incubation)
COCCn1cc(C(=O)N2CCC(c3cc(CN)ccc3F)CC2)c2c(OC(F)(F)F)ccc(F)c21 [Parent of 4, [4-(5-aminomethyl-2-fluoro-phenyl)-piperidin-1-yl]-[7-fluoro-1-(2-methoxy-ethyl)-4-trifluoromethoxy-1H-indol-3-yl]-methanone hydrochloride]	7.42			
COCCn1cc(C(=O)N2CCC(c3cc(CNC(=O)CNC(=O)[C@@H](N)C(C)C)ccc3F)CC2)c2c(C(=O)N3CCOCC3)cccc21.Cl [Example 1, (S)-2-Amino-N-[(4-fluoro-3-{1-[1-(2-methoxy-ethyl)-4-(morpholine-4-carbonyl)-1H-indole-3-carbonyl]-piperidin-4-yl}-benzylcarbamoyl)-methyl]-3-methyl-butyramide hydrochloride]		very unstable	19%	0%
COCCn1cc(C(=O)N2CCC(c3cc(CN)ccc3F)CC2)c2c(C(=O)N3CCOCC3)cccc21 [Parent of 1, [4-(5-Aminomethyl-2-fluoro-phenyl)-piperidin-1-yl]-[1-(2-methoxy-ethyl)-4-(morpholine-4-carbonyl)-1H-indol-3-yl]-methanone hydrochloride]	7.54			
